Data published in US7396645B1, “Cholestasis signature” (priority 2002, dated 2008).
Where two headings read alike, the source gives them in different places. Marks after values point to notes of the source that are not given here.

Tests used:
Cholestasis Signature = system: Cholestasis Signature
Protocol: (§1) After determination of the MTD and FED for a compound, each compound was dissolved in a vehicle for administration on day 1 of the study (additional daily doses were stored as frozen aliquots from this initial formulation). Each compound was administered to three individual male Sprague-Dawley rats for each of the two doses (MTD and FED) for one of four different times (0.25 day, 1 day, 3 days, and 5 days), yielding a total of up to 24 animals per compound study. Vehicle choice was based on solubility of the compound, effect of food on adsorption, and the vehicles used in the literature reports examined during the FED selection investigations, described above. Generally, the route and vehicle in which the FED was defined are used. When there was a choice of routes and vehicles, oral routes were chosen over injection routes. Many compounds, especially oncolytics, are only administerable intravenously. In such cases, the compound was administered as an intravenous formulation into the tail vein. Orally administered compounds were given dissolved in either water, 1% carboxymethycellulose (CMC) or corn oil. Intravenously and intraperitoneally administered compounds were given in 0.9% saline. Subcutaneously administered compounds were given in corn oil. Animal body weights were determined at 1 day and, where appropriate, at 4 days, before necropsy, and clinical observations were made on a daily basis. Control animals were dosed with vehicle only. Three male animals were used for each dose and time combination used for the compound treatment.
(§2) Tissue Harvest and Handling: After the allocated treatment time, the tissues from the animals were harvested. […] All the tissues collected were divided to provide samples for histopathological analyses, and the remainder of each tissue was then snap-frozen. […] The parameters were measured using a Hitachi-911 clinical chemistry analysis instrument according to the manufacturer's instructions. The following blood constituents were measured: Blood Urea Nitrogen (BUN), Creatinine (CRE), Glucose (GLU), Alanine Transaminase (ALT), Aspartate Aminotrans-ferase (AST), Alkaline Phosphatase (ALP), Total Bilirubin (TBI), Sodium (SOD), Potassium (POT), Chloride (CHL), Phosphorus (PHO), Total Protein (TPR), Albumin (ALB), Cholesterol (CHO), Creatine Phosphokinase (CPK), Lactate Dehydrogenase (LDH), Carbon Dioxide (CO2), Uric Acid (UA), and Lipase. […] The parameters were measured using a Baker 9000 blood cell analysis instrument according to the manufactures instructions. The following blood constituents were measured: Leukocyte count (WBC), Differential Leukocyte counts, Erythrocyte count (RBC), Hemoglobin concentration (HGB), Hematocrit (HCT), Mean Corpuscular Volume (MCV), Mean Corpuscular Hemoglobin (MCH), Mean Corpuscular Hemoglobin Concentration (MCC), Thrombocyte Count (PLC). Histopathology: Histopathological analyses of hematoxylin and eosin-stained tissue sections were performed and peer-reviewed by board-certified (Diplomate, American College of Veterinary Pathologists) veterinary pathologists. Preparation of Enriched mRNA: Punch Biopsies were Taken from the Frozen Tissues and were completely homogenized before being processed using the MagNA Pure robot. (Roche Diagnostics Corp., Indianapolis, Ind.) in combination with the MagNA Pure LC RNA Isolation kit II (Roche Diagnostics Corp). The amount of lysis buffer was adjusted to allow 1 ml per 50 mg for liver tissue, or 1 ml per 80 mg for all other tissues. After complete homogenization and before loading of the samples into the 32-well MagNA Pure plate, the samples were syringed 5-6 times using a 20-gauge 3-ml syringe to ensure a smooth solution for robotic processing. Tissue sample processing was performed in duplicate wells (loading 150 μl of homogenized sample and 150 μl of additional lysis buffer to each well) of the MagNA Pure LC, which is programmed to extract mRNA using oligo-dT selection technology into a final elution volume of 100 μl.

male Sprague-Dawley rats = conditions: rat, in vivo, po
Excerpt: Compound dosing was based on the acute dose LD50s recorded in published reference or literature sources. […] The MTD (maximum tolerated dose) was then selected as the dose at which the animals […] 5-10% body weight during the 5-day range finding study. […] In addition, the clinical observations must show no or mild clinical signs during the whole of the range-finding study. At the next highest dose, signs and symptoms of adverse effects and exceeding those of the MTD should be seen to occur. Should these criteria not be met, the range-finding study is repeated using a modified dose range.
as §1
Tissue Harvest and Handling: After the allocated treatment time, the tissues from the animals were harvested. […] All the tissues collected were divided to provide samples for histopathological analyses, and the remainder of each tissue was then snap-frozen. […] The parameters were measured using a Hitachi-911 clinical chemistry analysis instrument according to the manufacturer's instructions. The following blood constituents were measured: Blood Urea Nitrogen (BUN), Creatinine (CRE), Glucose (GLU), Alanine Transaminase (ALT), Aspartate Aminotrans-ferase (AST), Alkaline Phosphatase (ALP), Total Bilirubin (TBI), Sodium (SOD), Potassium (POT), Chloride (CHL), Phosphorus (PHO), Total Protein (TPR), Albumin (ALB), Cholesterol (CHO), Creatine Phosphokinase (CPK), Lactate Dehydrogenase (LDH), Carbon Dioxide (CO2), Uric Acid (UA), and Lipase. […] The parameters were measured using a Baker 9000 blood cell analysis instrument according to the manufactures instructions. The following blood constituents were measured: Leukocyte count (WBC), Differential Leukocyte counts, Erythrocyte count (RBC), Hemoglobin concentration (HGB), Hematocrit (HCT), Mean Corpuscular Volume (MCV), Mean Corpuscular Hemoglobin (MCH), Mean Corpuscular Hemoglobin Concentration (MCC), Thrombocyte Count (PLC). Histopathology: Histopathological analyses of hematoxylin and eosin-stained tissue sections were performed and peer-reviewed by board-certified (Diplomate, American College of Veterinary Pathologists) veterinary pathologists.

livers of rats = conditions: rat, in vivo
Protocol: as §1, §2

[1] = rat liver expression data vs Cholestasis Signature, maximum score of training treatments normalised to 100, dose and time not given

CC(C)Cc1ccc(C(C)C(=O)O)cc1 (stereo not shown) [IBUPROFEN]
Sequence Projection Score (SPS) (Cholestasis Signature; rat, in vivo): 33*

CCCCCCCCc1ccc(O)cc1 [4-OCTYLPHENOL]
Sequence Projection Score (SPS) (Cholestasis Signature; [1]): 22

Nc1nc2nc[nH]c2c(=S)[nH]1 [THIOGUANINE]
Sequence Projection Score (SPS) (Cholestasis Signature; rat, in vivo): 19

S=C=Nc1cccc2ccccc12 [1-NAPHTHYL ISOTHIOCYANATE, 1-naphthyl isothiocyanate]
Sequence Projection Score (SPS) (Cholestasis Signature; [1]): 90**

ClC(Cl)(Cl)Cl [CARBON TETRACHLORIDE]
Sequence Projection Score (SPS) (Cholestasis Signature; [1]): 50*

CN(C)C=O [N,N-DIMETHYLFORMAMIDE]
Sequence Projection Score (SPS) (Cholestasis Signature; [1]): 27*

C[C@]12CC[C@@H]3c4ccc(O)cc4CC[C@H]3[C@@H]1C[C@@H](O)[C@@H]2O [ESTRIOL]
Sequence Projection Score (SPS) (Cholestasis Signature; rat, in vivo): 27*

COc1ccc2cc([C@H](C)C(=O)O)ccc2c1 [NAPROXEN]
Sequence Projection Score (SPS) (Cholestasis Signature; rat, in vivo): 48*

CCC(C)n1ncn(-c2ccc(N3CCN(c4ccc(OCC5COC(Cn6cncn6)(c6ccc(Cl)cc6Cl)O5)cc4)CC3)cc2)c1=O (stereo not shown) [ITRACONAZOLE]
Sequence Projection Score (SPS) (Cholestasis Signature; rat, in vivo): 17

O=C(O)Cc1ccccc1Nc1c(Cl)cccc1Cl [DICLOFENAC]
Sequence Projection Score (SPS) (Cholestasis Signature; rat, in vivo): 41*

CC(=O)N1CCN(c2ccc(OCC3COC(Cn4ccnc4)(c4ccc(Cl)cc4Cl)O3)cc2)CC1 (stereo not shown) [KETOCONAZOLE]
Sequence Projection Score (SPS) (Cholestasis Signature; rat, in vivo): 21

C#C[C@]1(OC(C)=O)CC[C@H]2[C@@H]3CCC4=CC(=O)CC[C@@H]4[C@H]3CC[C@@]21C [NORETHINDRONE ACETATE]
Sequence Projection Score (SPS) (Cholestasis Signature; rat, in vivo): 23*

CCO [ETHANOL]
raised serum levels of ALP and TBI compared with vehicle-treated control animals (male Sprague-Dawley rats): at least 2 fold
Fold change in serum alkaline phosphatase (male Sprague-Dawley rats; 3000 mg/kg): 1.5 fold
Fold change in serum alkaline phosphatase and total bilirubin (male Sprague-Dawley rats; 3000 mg/kg): 3.1 fold
Fold change in serum total bilirubin (male Sprague-Dawley rats; 3000 mg/kg): 2.0 fold
steatosis (livers of rats): moderate to very severe

C#C[C@]1(O)CC[C@H]2[C@@H]3CCc4cc(O)ccc4[C@H]3CC[C@@]21C [ETHINYLESTRADIOL]
Sequence Projection Score (SPS) (Cholestasis Signature; rat, in vivo): 61*

CC(C)(Oc1ccc(CCNC(=O)c2ccc(Cl)cc2)cc1)C(=O)O [BEZAFIBRATE]
Sequence Projection Score (SPS) (Cholestasis Signature; rat, in vivo): 42*

CC(C)n1c(/C=C/C(O)CC(O)CC(=O)O)c(-c2ccc(F)cc2)c2ccccc21 (stereo not shown) [FLUVASTATIN]
Sequence Projection Score (SPS) (Cholestasis Signature; rat, in vivo): 67*

COc1ccc2c(c1)c(CC(=O)O)c(C)n2C(=O)c1ccc(Cl)cc1 [INDOMETHACIN]
Sequence Projection Score (SPS) (Cholestasis Signature; rat, in vivo): 52*

CS(=O)(=O)Nc1ccc([N+](=O)[O-])cc1Oc1ccccc1 [NIMESULIDE]
Sequence Projection Score (SPS) (Cholestasis Signature; rat, in vivo): 38*
